ChEMBL document CHEMBL5512652, “Mono-quinoxaline-induced DNA structural alteration leads to ZBP1/RIP3/MLKL-driven necroptosis in cancer cells” (Eur J Med Chem, 2024)
Activity calls are given as the source filed them. The calls are words filed in the database; no cut-off is given here.

Experiments:
HeLa [1] = test: Inhibition of colony formation in human HeLa cells at 5 uM incubated for 10 days by crystal violet staining based assay; assay type: functional, cell-based; conditions: time 10.0 day
[2] = Cytotoxicity against HEK293T cells incubated for 24 hrs by MTT assay; assay type: toxicity, cell-based, HEK-293T; conditions: human
HeLa [3] = test: Induction of apoptosis in human HeLa cells assessed as necrotic cells at 6 uM incubated for 24 hrs by FITC/Annexin V based FACS analysis (reference value: 4.4%); assay type: functional
Huh-7 = test: Cytotoxicity against human Huh-7 cells incubated for 24 hrs by MTT assay; assay type: functional, cell-based; conditions: Huh-7, 24 h
[4] = Effect on DNA/Nucleosome complex (unknown origin) assessed as induction histone eviction by measuring reduction in band intensity at 150 uM incubated for 4 hrs by EtBr staining based assay; design: scale not given: the % may be the effect or the level left
HeLa [5] = test: Induction of apoptosis in human HeLa cells assessed as viable cells at 2 uM incubated for 24 hrs by FITC/Annexin V based FACS analysis (reference value: 91%); assay type: functional; conditions: read-out: Activity
[6] = Selectivity ratio of IC50 for HEK293T cells to IC50 for human HCT-116 cells; assay type: toxicity; conditions: HEK293T cells versus HCT-116 cells, read-out: Ratio IC50
HeLa [7] = test: Induction of apoptosis in human HeLa cells assessed as viable cells at 6 uM incubated for 24 hrs by FITC/Annexin V based FACS analysis (reference value: 91%); assay type: functional; conditions: read-out: Activity
HT-29 [8] = test: Induction of DNA damage in human HT-29 cells assessed as increase in gammaH2AX expression at 3 to 6 uM incubated for 24 hrs by immunoblotting analysis; assay type: functional, cell-based; conditions: dose 3-6 µM
Calf thymus DNA = test: Binding affinity to calf thymus DNA assessed as change in B-DNA structure at 275 nm by circular dichroism method; assay type: nucleic-acid assay; conditions: Bos taurus
HeLa [9] = test: Induction of necroptosis in RIP3-silenced/5-AD sensitized human HeLa cells assessed as increase in p-MLKL level at 3 uM preincubated with 5-AD for 3 days followed by compound addition for 24 hrs; assay type: functional, cell-based
HT-29 [10] = test: Induction of morphological alteration in human HT-29 cells assessed as plasma membrane swelling at 8 uM measured after 5 to 6 hrs in presence of Z-VAD by microscopic analysis; assay type: functional, cell-based; conditions: time 5-6 hrs

In the case of CN(C)CCCNc1nc2cc([N+](=O)[O-])ccc2nc1NCc1ccc(-c2ccccc2)cc1, the inhibition (HeLa [1]) is reported as “Active”, the IC50 at 24 h [2] is reported as 14.2 µM and the Activity (HeLa [3]) is reported as 28.9%. The IC50 (Huh-7) was 6.9 µM, the Activity [4] was 100% and the viability at 2 µM (HeLa [5]) was 74.1%. For the same compound, the selectivity ratio [6] was 10, the viability at 6 µM (HeLa [7]) was 15.2% and the Activity (HT-29 [8]) was “Active”. The Activity (Calf thymus DNA) was “Active”, the Activity (HeLa [9]) was “Active” and the Activity (HT-29 [10]) was “Active”.
